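How tested: cells in 96-well plates exposed to compound for 48 hours at five concentrations. GI50 = concentration required for 50% inhibition of growth.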 Activity calls are given as the source filed them. Rule as the data show it: active = GI50 up to about 1.1 µM and inactive = higher.
Assays:
Assay in all cases: NCI-60 cell line screen, 48 h
A549 = system: A549
SK-OV-3 = system: SK-OV-3
MDA-MB-435 = system: MDA-MB-435
HCC 2998 = system: HCC 2998
IGROV-1 = system: IGROV-1
M14 = system: M14
CAKI-1 = system: CAKI-1
U-251 = system: U-251
UO-31 = system: UO-31
SK-MEL-28 = system: SK-MEL-28
Hs-578T = system: Hs-578T
SW-620 = system: SW-620
PC-3 = system: PC-3
Malme-3M = system: Malme-3M
NCI-H522 = system: NCI-H522
A498 = system: A498
HOP-62 = system: HOP-62
TK-10 = system: TK-10
MOLT-4 = system: MOLT-4
MCF7 = system: MCF7
ACHN = system: ACHN
SK-MEL-5 = system: SK-MEL-5
786-0 = system: 786-0
OVCAR-8 = system: OVCAR-8
SNB-19 = system: SNB-19
NCI-H23 = system: NCI-H23
SNB-75 = system: SNB-75
NCI-H460 = system: NCI-H460
MDA-MB-231 = system: MDA-MB-231
OVCAR-4 = system: OVCAR-4
KM12 = system: KM12
COLO 205 = system: COLO 205
SF-539 = system: SF-539
EKVX = system: EKVX
T47D = system: T47D
SF-268 = system: SF-268
HL-60 = system: HL-60
OVCAR-3 = system: OVCAR-3
NCI-H226 = system: NCI-H226
UACC-257 = system: UACC-257
RXF 393 = system: RXF 393
BT-549 = system: BT-549
HCT-116 = system: HCT-116
DU-145 = system: DU-145
HOP-92 = system: HOP-92
MDA-N = system: MDA-N
CCRF-CEM = system: CCRF-CEM
SF-295 = system: SF-295
SN12C = system: SN12C
SR = system: SR
K562 = system: K562
OVCAR-5 = system: OVCAR-5
UACC-62 = system: UACC-62
HT-29 = system: HT-29
RPMI-8226 = system: RPMI-8226
SK-MEL-2 = system: SK-MEL-2
HCT-15 = system: HCT-15
LOX IMVI = system: LOX IMVI
NCI/ADR-RES = system: NCI/ADR-RES

Structure (SMILES): CCCN1CCC(=O)N(CCC(F)(F)C(F)(F)C(F)(F)C(F)(F)C(F)(F)C(F)(F)F)C1=S
- GI50 (A549): > 100 µM (inactive)
- GI50 (SK-OV-3): > 100 µM (inactive)
- GI50 (MDA-MB-435): > 100 µM (inactive)
- GI50 (HCC 2998): 94.6 µM (inactive)
- GI50 (IGROV-1): > 100 µM (inactive)
- GI50 (M14): > 100 µM (inactive)
- GI50 (CAKI-1): > 100 µM (inactive)
- GI50 (U-251): > 100 µM (inactive)
- GI50 (UO-31): > 100 µM (inactive)
- GI50 (SK-MEL-28): > 100 µM (inactive)
- GI50 (Hs-578T): > 100 µM (inactive)
- GI50 (SW-620): > 100 µM (inactive)
- GI50 (PC-3): > 100 µM (inactive)
- GI50 (Malme-3M): > 100 µM (inactive)
- GI50 (NCI-H522): > 100 µM (inactive)
- GI50 (A498): > 100 µM (inactive)
- GI50 (HOP-62): > 100 µM (inactive)
- GI50 (TK-10): > 100 µM (inactive)
- GI50 (MOLT-4): > 100 µM (inactive)
- GI50 (MCF7): > 100 µM (inactive)
- GI50 (ACHN): > 100 µM (inactive)
- GI50 (SK-MEL-5): > 100 µM (inactive)
- GI50 (786-0): > 100 µM (inactive)
- GI50 (OVCAR-8): > 100 µM (inactive)
- GI50 (SNB-19): > 100 µM (inactive)
- GI50 (NCI-H23): > 100 µM (inactive)
- GI50 (SNB-75): > 100 µM (inactive)
- GI50 (NCI-H460): > 100 µM (inactive)
- GI50 (MDA-MB-231): > 100 µM (inactive)
- GI50 (OVCAR-4): > 100 µM (inactive)
- GI50 (KM12): 71 µM (inactive)
- GI50 (COLO 205): 69.7 µM (inactive)
- GI50 (SF-539): > 100 µM (inactive)
- GI50 (EKVX): > 100 µM (inactive)
- GI50 (T47D): > 100 µM (inactive)
- GI50 (SF-268): > 100 µM (inactive)
- GI50 (HL-60): > 100 µM (inactive)
- GI50 (OVCAR-3): > 100 µM (inactive)
- GI50 (NCI-H226): > 100 µM (inactive)
- GI50 (UACC-257): > 100 µM (inactive)
- GI50 (RXF 393): 99.5 µM (inactive)
- GI50 (BT-549): > 100 µM (inactive)
- GI50 (HCT-116): > 100 µM (inactive)
- GI50 (DU-145): > 100 µM (inactive)
- GI50 (HOP-92): > 100 µM (inactive)
- GI50 (MDA-N): > 100 µM (inactive)
- GI50 (CCRF-CEM): > 100 µM (inactive)
- GI50 (SF-295): > 100 µM (inactive)
- GI50 (SN12C): > 100 µM (inactive)
- GI50 (SR): > 100 µM (inactive)
- GI50 (K562): > 100 µM (inactive)
- GI50 (OVCAR-5): > 100 µM (inactive)
- GI50 (UACC-62): > 100 µM (inactive)
- GI50 (HT-29): 90.6 µM (inactive)

Structure (SMILES): CCOC(=O)C(NC(=O)c1cccc(Cl)c1)(N1CCN(c2cc3c(cc2F)c(=O)c(C(=O)O)cn3C2CC2)CC1)C(F)(F)F (configuration not stated)
- GI50 (A549): 15.2 µM (inactive)
- GI50 (SK-OV-3): 23.4 µM (inactive)
- GI50 (MDA-MB-435): 14.2 µM (inactive)
- GI50 (HCC 2998): 19.4 µM (inactive)
- GI50 (IGROV-1): 16.1 µM (inactive)
- GI50 (M14): 15.9 µM (inactive)
- GI50 (CAKI-1): 17.3 µM (inactive)
- GI50 (U-251): 5.24 µM (inactive)
- GI50 (UO-31): 20.1 µM (inactive)
- GI50 (SK-MEL-28): 16.5 µM (inactive)
- GI50 (Hs-578T): 20.7 µM (inactive)
- GI50 (SW-620): 12.2 µM (inactive)
- GI50 (PC-3): 13.7 µM (inactive)
- GI50 (Malme-3M): 18 µM (inactive)
- GI50 (A498): 20 µM (inactive)
- GI50 (HOP-62): 22.2 µM (inactive)
- GI50 (MOLT-4): 3.71 µM (inactive)
- GI50 (ACHN): 15.5 µM (inactive)
- GI50 (SK-MEL-5): 12.9 µM (inactive)
- GI50 (786-0): 14.6 µM (inactive)
- GI50 (RPMI-8226): 3.94 µM (inactive)
- GI50 (OVCAR-8): 17.5 µM (inactive)
- GI50 (SK-MEL-2): 14.7 µM (inactive)
- GI50 (SNB-19): 22.2 µM (inactive)
- GI50 (NCI-H23): 15.4 µM (inactive)
- GI50 (SNB-75): 20.2 µM (inactive)
- GI50 (NCI-H460): 16.7 µM (inactive)
- GI50 (MDA-MB-231): 15.6 µM (inactive)
- GI50 (OVCAR-4): 15.7 µM (inactive)
- GI50 (KM12): 11.5 µM (inactive)
- GI50 (COLO 205): 16.6 µM (inactive)
- GI50 (SF-539): 16.7 µM (inactive)
- GI50 (EKVX): 18.6 µM (inactive)
- GI50 (T47D): 19.1 µM (inactive)
- GI50 (SF-268): 12.5 µM (inactive)
- GI50 (HL-60): 2.67 µM (inactive)
- GI50 (OVCAR-3): 10.7 µM (inactive)
- GI50 (NCI-H226): 19.5 µM (inactive)
- GI50 (RXF 393): 17 µM (inactive)
- GI50 (BT-549): 18.9 µM (inactive)
- GI50 (HCT-116): 12.7 µM (inactive)
- GI50 (DU-145): 25.4 µM (inactive)
- GI50 (HOP-92): 16.3 µM (inactive)
- GI50 (MDA-N): 15.2 µM (inactive)
- GI50 (CCRF-CEM): 2.67 µM (inactive)
- GI50 (SF-295): 21.6 µM (inactive)
- GI50 (SN12C): 26.9 µM (inactive)
- GI50 (SR): 6.61 µM (inactive)
- GI50 (K562): 4.78 µM (inactive)
- GI50 (OVCAR-5): 16.7 µM (inactive)
- GI50 (UACC-62): 15.3 µM (inactive)

Structure (SMILES): COC(=O)c1ccccc1/C=C1\Cc2c(ccc3c2CCC3)C1=O
- GI50 (A549): > 100 µM (inactive)
- GI50 (MDA-MB-435): > 100 µM (inactive)
- GI50 (HCC 2998): > 100 µM (inactive)
- GI50 (IGROV-1): > 100 µM (inactive)
- GI50 (M14): > 100 µM (inactive)
- GI50 (CAKI-1): > 100 µM (inactive)
- GI50 (U-251): 68.4 µM (inactive)
- GI50 (UO-31): > 100 µM (inactive)
- GI50 (SK-MEL-28): > 100 µM (inactive)
- GI50 (Hs-578T): > 100 µM (inactive)
- GI50 (SW-620): > 100 µM (inactive)
- GI50 (PC-3): > 100 µM (inactive)
- GI50 (Malme-3M): > 100 µM (inactive)
- GI50 (NCI-H522): > 100 µM (inactive)
- GI50 (A498): > 100 µM (inactive)
- GI50 (HOP-62): 80.5 µM (inactive)
- GI50 (TK-10): > 100 µM (inactive)
- GI50 (MOLT-4): > 100 µM (inactive)
- GI50 (MCF7): > 100 µM (inactive)
- GI50 (ACHN): > 100 µM (inactive)
- GI50 (SK-MEL-5): > 100 µM (inactive)
- GI50 (786-0): 70 µM (inactive)
- GI50 (RPMI-8226): > 100 µM (inactive)
- GI50 (HCT-15): > 100 µM
- GI50 (OVCAR-8): 78.9 µM (inactive)
- GI50 (SK-MEL-2): 56 µM (inactive)
- GI50 (SNB-19): > 100 µM (inactive)
- GI50 (NCI-H23): > 100 µM (inactive)
- GI50 (SNB-75): 39.1 µM (inactive)
- GI50 (NCI-H460): > 100 µM (inactive)
- GI50 (OVCAR-4): > 100 µM (inactive)
- GI50 (KM12): > 100 µM (inactive)
- GI50 (COLO 205): > 100 µM (inactive)
- GI50 (SF-539): > 100 µM (inactive)
- GI50 (EKVX): > 100 µM (inactive)
- GI50 (T47D): > 100 µM (inactive)
- GI50 (SF-268): > 100 µM (inactive)
- GI50 (HL-60): > 100 µM (inactive)
- GI50 (OVCAR-3): > 100 µM (inactive)
- GI50 (NCI-H226): > 100 µM (inactive)
- GI50 (UACC-257): > 100 µM (inactive)
- GI50 (RXF 393): > 100 µM (inactive)
- GI50 (BT-549): > 100 µM (inactive)
- GI50 (HCT-116): > 100 µM (inactive)
- GI50 (DU-145): > 100 µM (inactive)
- GI50 (HOP-92): 85.9 µM (inactive)
- GI50 (MDA-N): > 100 µM (inactive)
- GI50 (CCRF-CEM): > 100 µM (inactive)
- GI50 (LOX IMVI): > 100 µM (inactive)
- GI50 (SF-295): > 100 µM (inactive)
- GI50 (SN12C): > 100 µM (inactive)
- GI50 (SR): > 100 µM (inactive)
- GI50 (NCI/ADR-RES): > 100 µM (inactive)
- GI50 (K562): > 100 µM (inactive)
- GI50 (OVCAR-5): > 100 µM (inactive)
- GI50 (UACC-62): > 100 µM (inactive)
- GI50 (HT-29): > 100 µM (inactive)

Reference: ChEMBL document CHEMBL1201862, “PubChem BioAssay data set” (2004)
